The results in this text go back to patent US7452908B2, “Amide derivatives” (Banyu Pharmaceutical Co., Ltd., priority 1999, dated 2008).

The target of test [1] is T1, human m1 muscarinic acetylcholine receptor expressed in CHO cells (Homo sapiens, UniProt P11229).
T1 construct: purchased Receptor Biology, Inc; host or cells: CHO cells
T1 sequence (P11229 1-460): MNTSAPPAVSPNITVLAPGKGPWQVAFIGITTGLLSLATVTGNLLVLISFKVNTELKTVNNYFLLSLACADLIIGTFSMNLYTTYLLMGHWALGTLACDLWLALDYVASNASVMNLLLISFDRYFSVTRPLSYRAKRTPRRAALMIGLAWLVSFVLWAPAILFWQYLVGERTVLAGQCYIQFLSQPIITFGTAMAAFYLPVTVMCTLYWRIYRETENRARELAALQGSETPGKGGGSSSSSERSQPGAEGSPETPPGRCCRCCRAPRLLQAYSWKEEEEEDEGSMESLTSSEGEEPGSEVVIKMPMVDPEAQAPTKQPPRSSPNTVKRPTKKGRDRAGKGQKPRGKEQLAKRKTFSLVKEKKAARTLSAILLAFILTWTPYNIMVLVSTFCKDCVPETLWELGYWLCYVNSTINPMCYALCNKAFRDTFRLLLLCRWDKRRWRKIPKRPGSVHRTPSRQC
The test is described as follows: Inhibition of [3H]-N-methylscopolamine binding to muscarinic m1 receptor. To be noted: 0.2 nM [3H]-N-methylscopolamine. As for the experimental part: (§1) These tests were performed according to a modification of the method of Hargreaves, et al. (Br. J. Pharmacol. 107: 494-501, 1992). Namely, muscarinic acetylcholine receptors of human m1, m2, m3, m4 and m5 expressed in CHO cells (Receptor Biology, Inc.) were incubated with 0.2 nM [^3H]-N-methylscopolamine (82Ci/mmol, New England Nuclear, Inc.) and a test compound to be tested in 0.5 ml of 50 mM Tris-HCl, 10 mM MgCl2, 1 mM EDTA solution (pH 7.4) for 120 minutes at room temperature (about 20-25° C.), followed by suction filtration over a glass filter (UniFilter plate-GF/C; Packard). Then the filter was washed four times with 1 ml of ice-cold Tris-HCl buffer and dried at 50° C. for an hour. After adding a scintillator (Microscinti 0; Packard), the radioactivity of [^3H]-N-methylscopolamine binding to the filter was counted with a microplate scintillation counter (TopCount™; Packard). Non-specific receptor binding of [^3H]-N-methylscopolamine was measured by adding 1 μM N-methylscopolamine.

The target in test [2] is T2, human m3 muscarinic acetylcholine receptor expressed in CHO cells (Homo sapiens, UniProt P20309).
T2 construct: purchased Receptor Biology, Inc; host or cells: CHO cells
The test is described as follows: Inhibition of [3H]-N-methylscopolamine binding to muscarinic m3 receptor. As for the experimental part:
as §1

Test [3] addresses T3, human m2 muscarinic acetylcholine receptor expressed in CHO cells (Homo sapiens, UniProt P08172).
T3 construct: purchased Receptor Biology, Inc; host or cells: CHO cells
T3 sequence (P08172 1-466): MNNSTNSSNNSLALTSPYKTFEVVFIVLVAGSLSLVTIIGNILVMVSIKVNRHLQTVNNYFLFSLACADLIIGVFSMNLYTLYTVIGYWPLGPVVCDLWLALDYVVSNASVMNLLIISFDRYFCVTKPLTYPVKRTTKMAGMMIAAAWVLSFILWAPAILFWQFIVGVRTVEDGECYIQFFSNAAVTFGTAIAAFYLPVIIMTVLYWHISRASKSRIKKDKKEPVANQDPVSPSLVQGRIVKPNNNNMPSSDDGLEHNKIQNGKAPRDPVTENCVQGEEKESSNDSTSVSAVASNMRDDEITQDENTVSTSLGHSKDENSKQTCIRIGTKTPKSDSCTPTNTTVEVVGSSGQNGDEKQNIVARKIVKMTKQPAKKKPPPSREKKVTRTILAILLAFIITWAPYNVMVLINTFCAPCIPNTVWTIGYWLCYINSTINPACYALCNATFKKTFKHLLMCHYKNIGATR
The experiment in a line: Inhibition of [3H]-N-methylscopolamine binding to muscarinic m2 receptor. To be noted: 0.2 nM [3H]-N-methylscopolamine. As for the experimental part: as §1

Test [4] addresses T4, human m5 muscarinic acetylcholine receptor expressed in CHO cells (Homo sapiens, UniProt P08912).
T4 construct: purchased Receptor Biology, Inc; host or cells: CHO cells
T4 sequence (P08912 1-532): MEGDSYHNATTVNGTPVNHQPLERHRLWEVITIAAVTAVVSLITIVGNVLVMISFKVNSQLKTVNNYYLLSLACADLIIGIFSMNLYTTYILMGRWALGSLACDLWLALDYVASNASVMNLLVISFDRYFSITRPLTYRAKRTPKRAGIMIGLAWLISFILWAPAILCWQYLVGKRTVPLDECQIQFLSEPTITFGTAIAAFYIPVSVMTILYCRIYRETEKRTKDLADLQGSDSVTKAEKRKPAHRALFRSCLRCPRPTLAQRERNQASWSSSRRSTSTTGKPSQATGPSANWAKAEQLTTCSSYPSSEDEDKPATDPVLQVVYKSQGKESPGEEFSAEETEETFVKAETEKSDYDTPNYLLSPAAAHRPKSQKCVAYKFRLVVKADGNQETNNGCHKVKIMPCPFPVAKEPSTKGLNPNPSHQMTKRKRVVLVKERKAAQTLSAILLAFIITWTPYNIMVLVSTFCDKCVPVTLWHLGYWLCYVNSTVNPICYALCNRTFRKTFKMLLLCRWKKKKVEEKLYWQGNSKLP
The test is described as follows: Inhibition of [3H]-N-methylscopolamine binding to muscarinic m5 receptor. To be noted: 0.2 nM [3H]-N-methylscopolamine. As for the experimental part: as §1

Test [5] deals with T5, human m4 muscarinic acetylcholine receptor expressed in CHO cells (Homo sapiens, UniProt P08173).
T5 construct: purchased Receptor Biology, Inc; host or cells: CHO cells
T5 sequence (P08173 1-479): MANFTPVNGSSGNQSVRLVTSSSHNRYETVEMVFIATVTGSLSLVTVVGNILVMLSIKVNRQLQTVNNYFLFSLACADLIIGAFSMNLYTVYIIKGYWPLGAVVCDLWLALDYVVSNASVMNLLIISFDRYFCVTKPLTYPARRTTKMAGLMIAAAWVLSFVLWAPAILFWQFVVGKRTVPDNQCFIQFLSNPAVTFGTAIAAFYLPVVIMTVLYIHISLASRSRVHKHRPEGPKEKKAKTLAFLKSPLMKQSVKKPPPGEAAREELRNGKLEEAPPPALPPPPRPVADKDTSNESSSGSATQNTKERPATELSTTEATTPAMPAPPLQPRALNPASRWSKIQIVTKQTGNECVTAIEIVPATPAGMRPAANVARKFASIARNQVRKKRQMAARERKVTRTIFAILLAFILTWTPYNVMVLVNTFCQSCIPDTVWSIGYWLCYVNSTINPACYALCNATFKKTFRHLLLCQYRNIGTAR
The experiment in a line: Inhibition of [3H]-N-methylscopolamine binding to muscarinic m4 receptor. Particulars: 0.2 nM [3H]-N-methylscopolamine. As for the experimental part:
as §1

The target of another test is T6, M3 receptor (Canis lupus familiaris, UniProt A0A8I3N190).
T6 construct: from tissue; host or cells: whole animal, male beagle dogs (in vivo, airway)
The experiment in a line: Antagonism to M3 receptor: bronchodilation in anesthetized dogs (methacholine provocation test). The format is in vivo, beagle dogs. Particulars: inhalation of 1 mg/ml for 10 minutes, methacholine threshold four hours after administration. As for the experimental part:
The bronchodilation action of inhaled test compound was evaluated by measuring the compounds' inhibitory action on respiratory resistance-increasing reaction induced by a methacholine provocation test. For the experiment, 12 to 36 months old male beagle dogs (weighing 10-15 kg) were used. After being anesthetized by intravenous pentobarbital administration (30 mg/kg), the dogs were intubated cannulae in their trachea. After their respiration became stable, the cannulae were connected with Astograph (TCK-6100H, Chest) and a methacholine provocation test by 3 Hz oscillation method was conducted. […] The methacholine concentration at which the respiratory resistance increased to twice the initial value was recorded as the methacholine reaction threshold value. Before evaluating the test compounds, the methacholine reaction threshold value^1) under no drug treatment was measured at least twice at a week's interval, to select the dogs showing reproducible reaction.
The inhaling administration of each test compound (1 mg/ml) was conducted for 10 minutes under pentobarbital anesthetization (30 mg/kg, i.v.), with the nebulizer in the Astograph. […] The bronchodilator activity (shift value) of each tested compound was determined according to the following equation: […]

pKi: −log10 of the molar value.

T2 sequence (P20309 whole entry): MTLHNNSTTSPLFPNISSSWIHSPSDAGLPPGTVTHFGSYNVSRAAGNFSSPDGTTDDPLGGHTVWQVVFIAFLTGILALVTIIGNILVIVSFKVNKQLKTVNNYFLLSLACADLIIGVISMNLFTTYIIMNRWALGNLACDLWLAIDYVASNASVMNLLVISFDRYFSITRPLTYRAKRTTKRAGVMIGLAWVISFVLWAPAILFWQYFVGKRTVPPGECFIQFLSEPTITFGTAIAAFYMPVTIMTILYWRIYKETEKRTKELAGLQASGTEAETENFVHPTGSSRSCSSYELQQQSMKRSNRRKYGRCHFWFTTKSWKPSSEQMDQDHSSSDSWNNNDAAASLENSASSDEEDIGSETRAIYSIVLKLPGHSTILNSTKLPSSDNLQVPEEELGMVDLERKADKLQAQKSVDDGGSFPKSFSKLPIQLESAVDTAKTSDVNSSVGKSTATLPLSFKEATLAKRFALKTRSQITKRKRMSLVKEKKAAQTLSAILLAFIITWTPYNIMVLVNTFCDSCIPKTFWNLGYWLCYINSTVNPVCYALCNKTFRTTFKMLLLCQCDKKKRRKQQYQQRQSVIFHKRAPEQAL
T6 sequence (A0A8I3N190 1-590): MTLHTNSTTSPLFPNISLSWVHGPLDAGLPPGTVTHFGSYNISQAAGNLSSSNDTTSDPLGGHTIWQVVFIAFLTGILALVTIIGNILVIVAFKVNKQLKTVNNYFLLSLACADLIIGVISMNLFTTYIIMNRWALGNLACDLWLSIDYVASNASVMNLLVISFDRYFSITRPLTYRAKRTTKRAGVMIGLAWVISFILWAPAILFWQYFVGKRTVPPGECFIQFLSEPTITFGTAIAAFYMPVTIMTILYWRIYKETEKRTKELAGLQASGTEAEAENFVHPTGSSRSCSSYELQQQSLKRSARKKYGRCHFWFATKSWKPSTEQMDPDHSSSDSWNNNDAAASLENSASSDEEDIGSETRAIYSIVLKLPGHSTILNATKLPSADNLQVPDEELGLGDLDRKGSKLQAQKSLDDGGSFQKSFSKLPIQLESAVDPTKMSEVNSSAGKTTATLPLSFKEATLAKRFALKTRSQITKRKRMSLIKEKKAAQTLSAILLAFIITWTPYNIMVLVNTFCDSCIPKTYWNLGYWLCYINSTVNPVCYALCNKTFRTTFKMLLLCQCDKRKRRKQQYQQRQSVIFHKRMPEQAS

With `O=C(NC[C@H]1CCC[N+]2(CCCC2)C1)[C@H]1CCCN1C(=O)[C@@H]1C[C@@H](O)CN1C(=O)CC(c1ccccc1)(c1ccccc1)c1ccccc1.[Cl-]` [Example 151, (7R)-7-({({(2R)-1-({(2S,4R)-4-hydroxy-1-(3,3,3-triphenylpropanoyl)-2-pyrrolidinyl}carbonyl)-2-pyrrolidinyl}carbonyl)amino}methyl)-5-azoniaspiro [4.5]decane chloride], the pKi was 6.35 in test [1]; 8.46 in test [2] (human m3 in CHO cells, 0.2 nM [3H]-N-methylscopolamine); 6.34 in test [3]; 6.05 in test [4]; 7.13 in test [5]. The “Selectivity m1/m3” value in test [2] (ratio of Ki m1 to Ki m3) amounted to 130 times. Also, the “Selectivity m2/m3” value in test [2] (ratio of Ki m2 to Ki m3) was determined as 130 times. Further, in test [2] (ratio of Ki m4 to Ki m3), the “Selectivity m4/m3” value worked out at 21 times. The “Selectivity m5/m3” value in test [2] (ratio of Ki m5 to Ki m3) was found to be 250 times. Also, the “Shift (fold) Airway constriction M3” value at M3 receptor is given as over 40.0 fold.
